The values below come from patent US12139498B1, “Positive allosteric modulators of the muscarinic acetylcholine receptor M4” (Vanderbilt University, priority 2023, dated 2024).

This assay concerns the target T1, Human M4 (Homo sapiens, UniProt P08173).
T1 sequence (P08173 1-479): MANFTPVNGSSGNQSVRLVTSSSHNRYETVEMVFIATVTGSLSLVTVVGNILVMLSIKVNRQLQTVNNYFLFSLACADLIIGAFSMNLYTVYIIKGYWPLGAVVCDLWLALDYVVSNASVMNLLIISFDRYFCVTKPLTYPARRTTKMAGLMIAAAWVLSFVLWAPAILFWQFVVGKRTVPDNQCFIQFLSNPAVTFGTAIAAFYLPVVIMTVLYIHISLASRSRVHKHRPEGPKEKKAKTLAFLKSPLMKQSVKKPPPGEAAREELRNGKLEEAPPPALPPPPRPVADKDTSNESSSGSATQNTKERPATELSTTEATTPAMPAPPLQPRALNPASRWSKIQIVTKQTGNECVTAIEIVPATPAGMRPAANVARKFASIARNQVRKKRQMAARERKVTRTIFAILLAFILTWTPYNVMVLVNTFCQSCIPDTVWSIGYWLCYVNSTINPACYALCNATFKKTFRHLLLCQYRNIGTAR
The assay can be described thus: M4 cell-based functional assay (calcium mobilization). On the set-up: expressed in transfected cells. To be noted: for Emax at 30 µM: % ACh maximum at 30 μM; for EC50: CHO-K1 hM4-Gqi5 cells, calcium flux, increase in EC20 acetylcholine response. The protocol:
Human (h) and rat (r) M4 CDNAs, along with the chimeric G protein Gqi5, were transfected into Chinese hamster ovary (CHO-K1) cells purchased from the American Type Culture Collection using Lipofectamine2000. The transfected cells were subjected to selection antibiotic treatment to generate stable cell lines; G418 sulfate (1 mg/ml) for selecting M4 expressing cells and Hygromycin B (500 μg/mL) for selecting Gqi5 expressing cells. The resulting polyclones were further screened to obtain monoclones of hM4-Gqi5 and rM4-Gqi5 for compound screening assay. Stable monoclone cells were maintained in Ham's F-12 medium containing 10% heat-inactivated fetal bovine serum (FBS), 1× Antibiotic/Antimycotic, 20 mM HEPES, 500 μg/mL G418 sulfate, and 200 μg/mL Hygromycin B in 37° C. humidified incubators in the presence of 5% CO2.
The high throughput assay was employed to measure receptor-induced mobilization of intracellular calcium to determine compound activity. Test compound was added to cells expressing the muscarinic receptors that were loaded with calcium sensitive fluorescent dye. After a ˜2.5 minute incubation period, a submaximal (EC20) concentration of acetylcholine was added, and the response measured. This kinetic assay allows for simultaneous screening and potency determination of multiple pharmacological modes of action including agonist and potentiator activity. CHO-K1 cells stably expressing muscarinic receptors were plated in growth medium lacking G418 and hygromycin at 15,000 cells/20 μL/well in Greiner 384-well black-walled, tissue culture (TC)-treated, clear-bottom plates (Greiner Bio-One). Cells were incubated overnight at 37° C. and 5% CO2. The next day, calcium assay buffer (Hank's balanced salt solution (HBSS), 20 mM HEPES, 2.5 mM Probenecid, 4.16 mM sodium bicarbonate (Sigma-Aldrich, St. Louis, MO)) was prepared to dilute compounds, agonists, and Fluo-4-acetomethoxyester (Fluo-4-AM), fluorescent calcium indicator dye. Compounds were serially diluted 1:3 into 10 point concentration response curves in DMSO using the Bravo Liquid Handler (Agilent, Santa Clara, CA), transferred to a 384 well daughter plates using an Echo acoustic liquid handler (Beckman Coulter, Indianapolis, Indiana), and diluted in assay Buffer to a 2× final concentration. The agonist plates were prepared using acetylcholine (ACh, Sigma-Aldrich, St. Louis, MO) concentrations for the EC20 and ECMAX responses by diluting in assay buffer to a 5× final concentration. The 2× dye solution (2.3 μM) was prepared by mixing a 2.3 mM Fluo-4-AM stock in DMSO with 10% (w/v) pluronic acid F-127 in a 1:1 ratio in assay buffer. Using a microplate washer (BioTek, Winooski, VT), cells were washed with assay buffer for 3 times to remove medium. After the final wash, 20 μL of assay buffer remained in the cell plates. Immediately, 20 μL of the 2× dye solution (final 1.15 μM) was added to each well of the cell plate using a Multidrop Combi dispenser (Thermo Fisher, Waltham, MA). After cells were incubated with the dye solutions for 45 min at 37° C. in the presence of 5% CO2, the dye solutions were removed and replaced with assay buffer using a microplate washer, leaving 20 μL of assay buffer in the cell plate.
The prepared compound, agonist, and cell plates were placed inside the Functional Drug Screening System uCell (FDSS uCell, Hamamatsu, Japan) to measure the calcium flux.
The triple add protocol was used to measure Ca kinetics; Compound, ACh for EC2O, and ACh for EC80 adds in an order. Briefly, after establishment of a fluorescence baseline for 2 seconds (excitation, 480 nm; emission, 530 nm), first add occurred by adding 20 μL of test compound to the cells, and the response was measured for 140 seconds. This is followed by second add; 10 μL (5×) of an EC20 concentration of ACh agonist was added to the cells, and the response of the cells was measured for 125 seconds. […]

As to `Cc1cc2nc(C(=O)NC3(C#N)CC3)cc(=O)n2nc1N1CCc2nc(Br)sc2C1` [Compound 46, 7-(2-bromo-6,7-dihydrothiazolo[5,4-c]pyridin-5(4H)-yl)-N-(1-cyanocyclopropyl)-8-methyl-4-oxo-4H-pyrimido[1,2-b]pyridazine-2-carboxamide], the Emax (usually the size of the effect at its maximum, as opposed to the concentration needed) at 30 µM was determined as 91% and the EC50 – broadly, the concentration at which the effect is half-maximal – turned out to be 360 nM.

For the compound `Cc1cc2nc(C(=O)N3CC4(COC4)C3)cc(=O)n2nc1N1CCc2nc(Br)sc2C1` [Compound 47, 7-(2-bromo-6,7-dihydrothiazolo[5,4-c]pyridin-5(4H)-yl)-8-methyl-2-(2-oxa-6-azaspiro[3.3]heptane-6-carbonyl)-4H-pyrimido[1,2-b]pyridazin-4-one], the Emax at 30 µM stood at 66% and the EC50 was 1940 nM.

With `Cc1cc2nc(C(=O)NC3CC(CC(F)(F)F)C3)cc(=O)n2nc1N1CCc2nc(Br)sc2C1` (stereo not drawn) [Compound 48, 7-(2-bromo-6,7-dihydrothiazolo[5,4-c]pyridin-5(4H)-yl)-8-methyl-4-oxo-N-(3-(2,2,2-trifluoroethyl)cyclobutyl)-4H-pyrimido[1,2-b]pyridazine-2-carboxamide], the Emax at 30 µM came to 87% and the EC50 stood at 2180 nM.

For the compound `Cc1cc2nc(=O)cc(C(F)(F)F)n2nc1N1CCc2nc(Br)sc2C1` [Compound 49, 7-(2-bromo-6,7-dihydrothiazolo[5,4-c]pyridin-5(4H)-yl)-8-methyl-4-(trifluoromethyl)-2H-pyrimido[1,2-b]pyridazin-2-one], the Emax at 30 µM was found to be 76% and the EC50 worked out at 386 nM.

Regarding `Cc1cc2nc(=O)ccn2nc1N1CCc2nc(Br)sc2C1` [Compound 50, 7-(2-bromo-6,7-dihydrothiazolo[5,4-c]pyridin-5(4H)-yl)-8-methyl-2H-pyrimido[1,2-b]pyridazin-2-one], the Emax at 30 µM came to 66% and the EC50 worked out at 521 nM.

`Cc1cc2nc(=O)cc(C)n2nc1N1CCc2nc(Br)sc2C1` [Compound 51, 7-(2-bromo-6,7-dihydrothiazolo[5,4-c]pyridin-5(4H)-yl)-4,8-dimethyl-2H-pyrimido[1,2-b]pyridazin-2-one]: the Emax at 30 µM came to 71% and the EC50 was 378 nM.

As for `CCOC(=O)c1cc(=O)n2nc(N3CCc4nc(Br)sc4C3)c(C)cc2n1` [Compound 52, ethyl 7-(2-bromo-6,7-dihydrothiazolo[5,4-c]pyridin-5(4H)-yl)-8-methyl-4-oxo-4H-pyrimido[1,2-b]pyridazine-2-carboxylate], the Emax at 30 µM was 92% and the EC50 is 868 nM.

In the case of `Cc1cc2nccnc2nc1N1CCc2ncsc2C1` [Compound 53, 5-(7-methylpyrido[2,3-b]pyrazin-6-yl)-4,5,6,7-tetrahydrothiazolo[5,4-c]pyridine], the Emax at 30 µM amounted to 82% and the 50% effective concentration (EC50) was 2790 nM.

As to `Cc1cc2nccnc2nc1N1CCc2nc(C3CC3)sc2C1` [Compound 54, 2-cyclopropyl-5-(7-methylpyrido[2,3-b]pyrazin-6-yl)-4,5,6,7-tetrahydrothiazolo[5,4-c]pyridine], the Emax at 30 µM was determined as 82% and the EC50 turned out to be 32 nM.

For the compound `Cc1cc2nccnc2nc1N1CCc2nc(C3(C)CC3)sc2C1` [Compound 55, 2-(1-methylcyclopropyl)-5-(7-methylpyrido[2,3-b]pyrazin-6-yl)-4,5,6,7-tetrahydrothiazolo[5,4-c]pyridine], the Emax at 30 µM was found to be 76% and the EC50 was 253 nM.

On to `Cc1cc2nccnc2nc1N1CCc2nc(-c3cccs3)sc2C1` [Compound 56, 5-(7-methylpyrido[2,3-b]pyrazin-6-yl)-2-(thiophen-2-yl)-4,5,6,7-tetrahydrothiazolo[5,4-c]pyridine], for which the Emax at 30 µM was determined as 50% and the EC50 was found to be 2390 nM.

Take `Cc1nc2c(s1)CN(c1nc3nccnc3cc1C)CC2` [Compound 57, 2-methyl-5-(7-methylpyrido[2,3-b]pyrazin-6-yl)-4,5,6,7-tetrahydrothiazolo[5,4-c]pyridine]: the Emax at 30 µM came out at 90% and the EC50 came out at 666 nM.

With `CCOC(=O)c1nc2c(s1)CN(c1nc3nccnc3cc1C)CC2` [Compound 58, ethyl 5-(7-methylpyrido[2,3-b]pyrazin-6-yl)-4,5,6,7-tetrahydrothiazolo[5,4-c]pyridine-2-carboxylate], the Emax at 30 µM was determined as 86% and the concentration for a half-maximal effect (EC50) worked out at 1840 nM.

With `Cc1cc2nccnc2nc1N1CCc2nc(-c3ccnn3C)sc2C1` [Compound 59, 2-(1-methyl-1H-pyrazol-5-yl)-5-(7-methylpyrido[2,3-b]pyrazin-6-yl)-4,5,6,7-tetrahydrothiazolo[5,4-c]pyridine], the Emax at 30 µM came to 54% and the EC50 stood at 2780 nM.

Regarding `Cc1cc2nccnc2nc1N1CCc2nc(N)sc2C1` [Compound 60, 5-(7-methylpyrido[2,3-b]pyrazin-6-yl)-4,5,6,7-tetrahydrothiazolo[5,4-c]pyridin-2-amine], the maximal response (Emax) at 30 µM is 67% and the EC50 is greater than 10000 nM.

Consider `Cc1cc2nccnc2nc1N1CCc2nc(Cl)sc2C1` [Compound 61, 2-chloro-5-(7-methylpyrido[2,3-b]pyrazin-6-yl)-4,5,6,7-tetrahydrothiazolo[5,4-c]pyridine], for which the Emax at 30 µM was determined as 68% and the EC50 came to 414 nM.

Turning to `Cc1cc2nccnc2nc1N1CCc2nc(C(F)(F)F)sc2C1` [Compound 62, 5-(7-methylpyrido[2,3-b]pyrazin-6-yl)-2-(trifluoromethyl)-4,5,6,7-tetrahydrothiazolo[5,4-c]pyridine], the Emax at 30 µM turned out to be 72% and the concentration giving a half-maximal response (EC50) turned out to be 93 nM.

With `Cc1cc2nccnc2nc1N1CCc2nc(C3CC3(C)C)sc2C1` (stereo not drawn) [Compound 63, 2-(2,2-dimethylcyclopropyl)-5-(7-methylpyrido[2,3-b]pyrazin-6-yl)-4,5,6,7-tetrahydrothiazolo[5,4-c]pyridine], the Emax at 30 µM is 63% and the EC50 amounted to 738 nM.

With `Cc1cc2nccnc2nc1N1CCc2nc(C(C)C)sc2C1` [Compound 64, 2-isopropyl-5-(7-methylpyrido[2,3-b]pyrazin-6-yl)-4,5,6,7-tetrahydrothiazolo[5,4-c]pyridine], the Emax at 30 µM was found to be 76% and the EC50 worked out at 119 nM.

In the case of `Cc1cc2nccnc2nc1N1CCc2nc(C(C)(C)C)sc2C1` [Compound 65, 2-(tert-butyl)-5-(7-methylpyrido[2,3-b]pyrazin-6-yl)-4,5,6,7-tetrahydrothiazolo[5,4-c]pyridine], the Emax at 30 µM worked out at 57% and the EC50 worked out at 1890 nM.

In the case of `Cc1cn2c(=O)[nH]nc2nc1N1CCc2nc(C3CCC3)sc2C1` [Compound 66, 7-(2-cyclobutyl-6,7-dihydrothiazolo[5,4-c]pyridin-5(4H)-yl)-6-methyl-[1,2,4]triazolo[4,3-a]pyrimidin-3(2H)-one], the Emax at 30 µM came out at 76% and the EC50 is 13 nM.
